Legend:
MOLM-13 = MOLM-13 Cellular Growth Inhibition Assay (CellTiter-Glo); assay type: cell-based; conditions: Homo sapiens, 168 h, MOLM-13 cells, 7 days of incubation
Method: (§1) HEK293 (Institute of Cytology Russian Academy of Science), MV4-11 (ATCC, CRL-9591), MOLM-13 (AcceGen, ABC-TC517S) were seeded at a density of 500 cells per well (HEK293) and 2000 cells per well (MV4-11, MOLM-13) in a 384-well clear bottom plate (Greiner Cat #781090) in 45 μl total volume of DMEM (PanEco, Cat #C420, Russia) or RPMI (PanEco, Cat #C330, Russia) with 10% FBS(HyClone Cat #SV30160.03). HEK293 were allowed to adhere overnight at 37° C., 5% CO2. 500× compounds solutions in DMSO (Sigma Cat #D2650) were prepared into Cmpnds plate (Diamond Well Plate, Axigen, Cat #P-384-120 SQ-C—S) and DMSO only control was included. 1 μl of 500× compounds (Cmpnds plate) was added to 49 μl of culture medium into Dilution plate (Diamond Well Plate, Axigen, Cat #P-384-120 SQ-C—S), mixed and then 5 μl of 10× compounds solutions were transferred to cells followed by centrifugation at 100 g for 1 min. Final DMSO concentration was 0.2%. After 3 days of incubation, 10 μl of 1× compounds were added to cells. After 7 days of incubation, 12 μl of CellTiter-Glo (Promega, CAT #G7572) were added to the cells, plate was centrifuged at 100 g for 1 min and luminescence signal was measured using Microplate Reader (CLARIOStar).

[1] = HEK293 Cellular Growth Inhibition Assay (CellTiter-Glo); assay type: cell-based; conditions: human, HEK293 cells, 7 days of incubation
Method: as §1

[2] = molecular target: T1, recombinant MEN1 protein and fluorescein-labeled MLL4-43 peptide (Homo sapiens, UniProt O00255); assay: Primary fluorescence polarization assay of MEN1 / MLL4-43 interaction inhibition; assay type: binding; conditions: MEN1 10 nM, MLL4-43 0.5 nM, 1 hour at room temperature
T1 construct: purchased Creativebiomart MEN1-35H
T1 sequence (O00255 1-610): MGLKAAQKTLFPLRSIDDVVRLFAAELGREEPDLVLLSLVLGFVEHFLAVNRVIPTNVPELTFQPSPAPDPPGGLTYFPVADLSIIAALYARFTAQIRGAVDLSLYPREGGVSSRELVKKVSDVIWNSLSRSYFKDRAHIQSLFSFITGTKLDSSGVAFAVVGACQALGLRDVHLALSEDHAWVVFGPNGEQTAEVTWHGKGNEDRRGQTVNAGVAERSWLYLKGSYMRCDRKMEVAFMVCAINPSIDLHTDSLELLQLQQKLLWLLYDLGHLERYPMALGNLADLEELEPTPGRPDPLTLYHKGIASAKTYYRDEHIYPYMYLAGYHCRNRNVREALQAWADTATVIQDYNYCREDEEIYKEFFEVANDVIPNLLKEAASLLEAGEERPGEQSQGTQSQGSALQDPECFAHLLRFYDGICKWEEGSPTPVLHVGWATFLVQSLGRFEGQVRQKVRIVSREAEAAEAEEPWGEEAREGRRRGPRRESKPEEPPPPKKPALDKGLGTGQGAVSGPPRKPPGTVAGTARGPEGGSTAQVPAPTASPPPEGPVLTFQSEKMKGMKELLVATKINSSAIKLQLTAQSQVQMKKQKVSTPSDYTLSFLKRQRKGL
Method: Compound activity was determined using recombinant MEN1 protein (Creativebiomart, Cat #MEN1-35H) and a custom fluorescein-labeled MLL4-43 peptide (Eton Bioscience Inc.). Interaction between MEN1 and MLL4-43 in the presence of compounds was determined by fluorescence polarization assay using a Microplate Reader ClarioStar Plus. The reaction was carried out in assay buffer (50 mM TRIS-HCl PH 7.4-7.6, 50 mM NaCl, 1 mM DTT, 0.1 mg/ml BSA). The compounds were dispensed on a 384 well Diamond Well Plate (Axigen, Cat #P-384-120 SQ-C—S) using the Biomek FX liquid handling system at 100× solutions of compounds in DMSO. 2× MEN1 mix (final concentration of MEN1 10 nM) was prepared in Assay buffer and 10 μl of mixture per well was added into 384w white Reaction plate with NBS(Corning, Cat #4513). 10 μl of Assay buffer w/o MENI was used for negative control. Plates were centrifuged for 1 min at 100 g. Next step the Compounds were added to Reaction plate using Biomek station via following steps: 3 μl of 100× compounds (in DMSO) were mixed thoroughly with 27 μl Assay Buffer, then 2 μl of this mixture was added to Reaction plate with 10 μl of MENI mix. Plates were centrifuged for 1 min at 100 g and incubated for 20 min at room temperature. Next 8 μL of MLL4-43 peptide per well was added to final concentration of MLL 0.5 nM. Plates were incubated for 1 hour at room temperature. Then fluorescence polarization was measured using Microplate Reader.

MV4-11 = MV4-11 Cellular Growth Inhibition Assay (CellTiter-Glo); assay type: cell-based; conditions: Homo sapiens, 168 h, MV4-11 cells, 7 days of incubation
Method: as §1

Row | EC50 [2] [nM] | SMILES | CC50 (MOLM-13) [µM] | CC50 at 7 days [1] [µM] | CC50 (MV4-11) [µM]
1 | 75 to 500 | CCS(=O)(=O)N[C@H]1CC[C@H](CN2CCC3(CC2)CN(c2ncnc4ccc(CCc5cccc(F)c5)cc24)C3)CC1 [Compound 61, N-((1R,4R)-4-((2-(6-(3-fluorophenethyl)quinazolin-4-yl)-2,7-diazaspiro[3.5]nonan-7-yl)methyl)cyclohexyl)ethanesulfonamide] | 1 to 5 | 5 to 15 | 1 to 2.5
2 | 1000 to 5000 | CCS(=O)(=O)Nc1ccc(CN2CCC3(CC2)CCN(c2ncnc4ccc(CC(F)(F)F)cc24)CC3)cc1 [Compound 1, N-[4-[[3-[6-(2,2,2-trifluoroethyl)quinazolin-4-y1]-3,9-diazaspiro[5.5]undecan-9-yl]methyl]phenyl]ethanesulfonamide] | 5 to 10 | 5 to 15 | 2.5 to 5
3 | 500 to 1000 | CCS(=O)(=O)Nc1cccc(CN2CC3(CCN(c4ncnc5ccc(CC(F)(F)F)cc45)CC3)C2)c1 [Compound 44, N-(3-((7-(6-(2,2,2-trifluoroethyl)quinazolin-4-yl)-2,7-diazaspiro[3.5]nonan-2-yl)methyl)phenyl)ethanesulfonamide] | 5 to 10 | 5 to 15 | 1 to 2.5
4 | 75 to 500 | O=C1COc2cc(CN3CCC4(CC3)CN(c3ncnc5ccc(CC(F)(F)F)cc35)C4)ccc2N1 [Compound 75, 7-((2-(6-(2,2,2-trifluoroethyl)quinazolin-4-yl)-2,7-diazaspiro[3.5]nonan-7-yl)methyl)-2H-benzo[b][1,4]oxazin-3(4H)-one] | 1 to 5 | 15 to 30 | 2.5 to 5
5 | 500 to 1000 | CCS(=O)(=O)N[C@H]1CC[C@H](CN2CCC3(CC2)CCN(c2ncnc4ccc(CC(F)(F)F)cc24)CC3)CC1 [Compound 3, N-((1R,4R)-4-((9-(6-(2,2,2-trifluoroethyl)quinazolin-4-yl)-3,9-diazaspiro[5.5]undecan-3-yl)methyl)cyclohexyl)ethanesulfonamide] | 10 to 20 | 5 to 15 | 5 to 10
6 | > 5000 | CCS(=O)(=O)Nc1ccc(CN2CCC3(CC2)CN(c2ncnc4cc(CC(F)(F)F)ccc24)C3)cc1 [Compound 8, N-(4-((2-(7-(2,2,2-trifluoroethyl)quinazolin-4-yl)-2,7-diazaspiro[3.5]nonan-7-yl)methyl)phenyl)ethanesulfonamide] | 10 to 20 | 15 to 30 | 5 to 10
7 | ≤ 75 | CCS(=O)(=O)N[C@H]1CC[C@H](CN2CCC3(CC2)CN(c2ncnc4ccc(CC(F)(F)F)cc24)C3)CC1 [Compound 5, N-((1R,4R)-4-((2-(6-(2,2,2-trifluoroethyl)quinazolin-4-yl)-2,7-diazaspiro[3.5]nonan-7-yl)methyl)cyclohexyl)ethanesulfonamide] | 1 to 5 | 5 to 15 | ≤ 1
8 | 500 to 1000 | CCS(=O)(=O)N[C@H]1CC[C@H](CN2CCC3(CC2)CN(c2ncnc4ccc(CCc5cccnc5)cc24)C3)CC1 [Compound 56, N-((1R,4R)-4-((2-(6-(2-(pyridin-3-yl)ethyl)quinazolin-4-yl)-2,7-diazaspiro[3.5]nonan-7-yl)methyl)cyclohexyl)ethanesulfonamide] | 5 to 10 | 15 to 30 | 5 to 10
